Experimental data: US7060451B2, “Methods for screening GABA-modulatory compounds for specified pharmacological activities” (Neurogen Corporation, priority 1999, dated 2006)

Assays:
rats [1] = experiment: step-down passive avoidance; format: in vivo; conditions: rat; for cognitive model (step-down passive avoidance), minimal efficacious dose: cognitive enhancement
Description: In step-down passive avoidance a rat is placed on a platform located in the center of an electrified grid floor that is contained within a large (45 cm×45 cm×50 cm) white translucent Plexiglas® enclosure. The natural inclination of the rat is to step off the platform and investigate its surroundings. […] Each time the animal steps off the platform it receives a mild foot shock of 2 mAmps×6 sec. Following each shock the animal is removed from the box, placed in its cage for a one minute inter-trial interval, and then returned to the platform. The latency to step down on each trial, the number of trials taken to reach criterion during training and the retention latency are collected.
Testing is conducted approximately 24 hrs. after training. Drug-free animals are placed on the platform in the box in which they will have been trained and the latency to step down onto the grid floor is recorded for one trial as a measure of memory retention.

[2] = target: GABAA receptors (benzodiazepine site, Ro15-1788 binding sites), rat cortex; experiment: Ro15-1788 competition binding assay, rat cortex membranes; conditions: displacement of 3H Ro15-1788, read-out: Ro15-1788 binding, K1
Experimental: Rat cortex membranes are prepared by homogenizing one or two previously frozen rat cortexes in 30 ml of 25 mM Tris Buffer, pH 7.4. The homogenate is centrifuged for 10 minutes at 500× g. The supernatant is then transferred to a clean centrifuge tube and the pellet discarded. The supernatant is spun for 20 minutes at 48,000× g. The supernatant from this spin is discarded and the pellet is resuspended in 30 ml of 25 mM Tris Buffer, pH 7.4 and centrifuged for an additional 10 minutes at 48,000× g. The supernatant from the final spin is discarded and the membrane pellet is resuspended in 100 mL Tris buffer per gram of cortex used.
The cortex membrane preparation is used to perform either percent inhibition or competition binding assays. In order to determine percent inhibition 300 μl of resuspended membranes are mixed with 200 μl ^3H labeled Ro15-1788 (final concentration 2.5 nM) and incubated for 1 hour on ice in the presence of 2 μl test compound in DMSO (final concentration 4 μM). Membranes are harvested onto untreated filtermats. The filtermats are dried and the ^3H Ro15-1788 signal is counted in a scintillation counter. Nonspecific binding is determined by displacement of ^3H Ro15-1788 with 10 μM Diazepam (RBI) or any other compound known to bind tightly at the benzodiazepine site.
K1 values are calculated according to the Cheng-Prussof equation.

[3] = target: α1β2γ2 GABAA subtype receptor (Homo sapiens, UniProt P14867+P18507); experiment: oocyte electrophysiology, two electrode voltage-clamp, potentiation of GABA current; format: cell-based; conditions: Xenopus oocytes, human subunits, GABA EC10; for Emax: read-out: oocyte electrophysiology maximum potentiation (%) α1β2γ2
Chain of α1β2γ2 GABAA subtype receptor (P14867 28-456): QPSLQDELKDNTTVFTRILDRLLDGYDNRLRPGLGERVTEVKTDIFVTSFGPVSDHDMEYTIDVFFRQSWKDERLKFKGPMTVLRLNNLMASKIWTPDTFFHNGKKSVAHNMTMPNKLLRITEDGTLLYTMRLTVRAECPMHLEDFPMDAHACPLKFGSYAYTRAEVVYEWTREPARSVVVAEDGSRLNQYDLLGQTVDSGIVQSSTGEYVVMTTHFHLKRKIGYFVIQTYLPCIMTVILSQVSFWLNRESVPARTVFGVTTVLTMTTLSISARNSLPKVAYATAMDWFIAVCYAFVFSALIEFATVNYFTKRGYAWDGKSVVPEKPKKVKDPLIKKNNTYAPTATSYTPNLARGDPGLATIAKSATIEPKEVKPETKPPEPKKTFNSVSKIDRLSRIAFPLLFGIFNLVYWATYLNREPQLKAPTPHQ
Chain of α1β2γ2 GABAA subtype receptor (P47870 25-512 partner limits assumed): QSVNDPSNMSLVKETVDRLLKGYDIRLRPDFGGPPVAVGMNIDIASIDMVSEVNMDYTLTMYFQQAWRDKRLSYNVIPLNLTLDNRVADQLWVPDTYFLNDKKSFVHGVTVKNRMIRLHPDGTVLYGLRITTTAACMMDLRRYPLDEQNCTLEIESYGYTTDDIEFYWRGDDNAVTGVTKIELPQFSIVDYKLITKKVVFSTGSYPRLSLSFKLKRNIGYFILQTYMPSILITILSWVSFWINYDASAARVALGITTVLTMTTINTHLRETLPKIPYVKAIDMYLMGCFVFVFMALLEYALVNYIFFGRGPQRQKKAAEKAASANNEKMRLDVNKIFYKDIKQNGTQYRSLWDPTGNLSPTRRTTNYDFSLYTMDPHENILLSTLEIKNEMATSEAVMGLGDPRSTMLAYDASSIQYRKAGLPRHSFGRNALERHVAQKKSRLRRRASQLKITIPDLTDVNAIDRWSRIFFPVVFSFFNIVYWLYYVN
Chain of α1β2γ2 GABAA subtype receptor (P18507 40-475): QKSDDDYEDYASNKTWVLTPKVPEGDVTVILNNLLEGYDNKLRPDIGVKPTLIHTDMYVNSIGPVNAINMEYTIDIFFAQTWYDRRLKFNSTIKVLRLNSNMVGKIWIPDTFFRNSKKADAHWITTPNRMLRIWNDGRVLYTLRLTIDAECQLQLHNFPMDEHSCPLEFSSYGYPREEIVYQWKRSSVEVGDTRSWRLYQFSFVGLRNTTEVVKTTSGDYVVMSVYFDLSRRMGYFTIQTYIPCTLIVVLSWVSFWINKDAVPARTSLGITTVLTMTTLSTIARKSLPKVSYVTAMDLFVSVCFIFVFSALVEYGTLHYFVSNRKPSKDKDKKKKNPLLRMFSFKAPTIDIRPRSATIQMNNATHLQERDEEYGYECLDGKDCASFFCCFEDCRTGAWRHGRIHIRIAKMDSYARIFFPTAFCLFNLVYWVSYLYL
Experimental: (§1) Assays are carried out as described previously in White and Gurley, 1995 and White, et al., 1995. Xenopus laevis oocytes are enzymatically isolated and injected with non-polyadenylated cRNA for human derived α, β and γ GABAA subunits, respectively. In more preferred embodiments cRNA for the α1β2γ2, α2β3γ2, α3β3γ2, and α5β3γ2 subunit combinations are injected. Only one of these subunit combinations is injected per cell. For each subunit combination, sufficient message is injected to result in current amplitudes of >10 nA when 1 μM GABA is applied. Electrophysiological recordings are carried out using the two electrode voltage-clamp technique at a membrane holding potential of −70 mV.
(§2) Compounds are evaluated against a GABA concentration that evokes <10% (EC10) of the maximal evocable GABA current. Each oocyte is exposed to increasing concentrations of compound in order to evaluate a concentration/effect relationship.
(§3) Specificity of a compound for the Ro15-1788 site is determined following completion of the concentration/effect curve. After washing the oocyte sufficiently to remove previously applied compound, the oocyte is exposed to GABA and 1 μM Ro15-1788, followed by exposure to GABA, 1 μM Ro15-1788, and compound. Percent change due to addition of compound is calculated as described above. Any percent change observed in the presence of Ro15-1788 is subtracted from the percent changes in current amplitude observed in the absence of 1 μM Ro15-1788. These net values are used for the calculation of average activity and EC50 values.
(§4) To evaluate average activity and EC50 values, the concentration/effect data are averaged across cells and fit to the logistic equation. Average values are reported as mean ±standard error.

[4] = target: α3β3γ2 GABAA subtype receptor (Homo sapiens, UniProt P18507+P34903); experiment: as above; format: cell-based; conditions: Xenopus oocytes, human subunits, GABA EC10
Chain of α3β3γ2 GABAA subtype receptor (P34903 29-492): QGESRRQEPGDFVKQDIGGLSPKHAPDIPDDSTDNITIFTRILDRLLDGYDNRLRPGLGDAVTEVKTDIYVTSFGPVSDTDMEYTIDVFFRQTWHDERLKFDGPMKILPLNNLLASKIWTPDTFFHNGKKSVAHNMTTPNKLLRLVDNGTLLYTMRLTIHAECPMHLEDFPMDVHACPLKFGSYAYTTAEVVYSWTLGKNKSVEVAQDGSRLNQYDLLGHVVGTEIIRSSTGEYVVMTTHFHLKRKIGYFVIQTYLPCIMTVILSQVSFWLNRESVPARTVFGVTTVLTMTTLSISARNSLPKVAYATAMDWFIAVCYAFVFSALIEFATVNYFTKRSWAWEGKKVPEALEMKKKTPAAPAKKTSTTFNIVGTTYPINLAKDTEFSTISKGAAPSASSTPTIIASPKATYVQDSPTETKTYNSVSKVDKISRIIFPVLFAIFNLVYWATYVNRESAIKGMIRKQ
Chain of α3β3γ2 GABAA subtype receptor (P28472 26-473 partner): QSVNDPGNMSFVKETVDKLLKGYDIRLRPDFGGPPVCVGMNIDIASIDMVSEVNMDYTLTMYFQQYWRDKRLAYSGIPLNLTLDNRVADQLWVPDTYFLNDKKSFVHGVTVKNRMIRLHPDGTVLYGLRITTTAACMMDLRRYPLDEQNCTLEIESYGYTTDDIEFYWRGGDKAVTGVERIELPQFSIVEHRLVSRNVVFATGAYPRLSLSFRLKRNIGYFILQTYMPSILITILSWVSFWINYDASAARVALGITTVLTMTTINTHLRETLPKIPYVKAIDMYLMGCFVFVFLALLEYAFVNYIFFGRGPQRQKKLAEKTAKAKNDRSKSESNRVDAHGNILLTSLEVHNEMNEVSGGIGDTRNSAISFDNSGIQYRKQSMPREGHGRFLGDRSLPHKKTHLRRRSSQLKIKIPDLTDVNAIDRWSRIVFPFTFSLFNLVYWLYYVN
Chain of α3β3γ2 GABAA subtype receptor (P18507 40-475): as the sequence (P18507 40-475) above
Experimental: as §1, §2, §3, §4

[5] = target: α2β3γ2 GABAA subtype receptor (Homo sapiens, UniProt P18507+P47869); experiment: as above; format: cell-based; conditions: Xenopus oocytes, human subunits, GABA EC10
Chain of α2β3γ2 GABAA subtype receptor (P47869 29-451): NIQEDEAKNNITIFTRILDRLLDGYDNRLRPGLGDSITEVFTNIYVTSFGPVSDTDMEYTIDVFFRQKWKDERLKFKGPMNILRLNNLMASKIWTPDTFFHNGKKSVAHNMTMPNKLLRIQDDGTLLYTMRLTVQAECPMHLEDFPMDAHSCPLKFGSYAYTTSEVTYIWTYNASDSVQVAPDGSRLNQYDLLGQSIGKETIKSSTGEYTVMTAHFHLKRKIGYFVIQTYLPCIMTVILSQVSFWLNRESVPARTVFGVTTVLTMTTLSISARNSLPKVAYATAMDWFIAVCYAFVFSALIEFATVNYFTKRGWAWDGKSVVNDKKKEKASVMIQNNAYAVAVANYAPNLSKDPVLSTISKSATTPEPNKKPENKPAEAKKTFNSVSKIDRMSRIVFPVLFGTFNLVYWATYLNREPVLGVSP
Chain of α2β3γ2 GABAA subtype receptor (P28472 26-473 partner): as the sequence (P28472 26-473 partner) above
Chain of α2β3γ2 GABAA subtype receptor (P18507 40-475): as the sequence (P18507 40-475) above
Experimental: as §1, §2, §3, §4

rats [6] = experiment: spontaneous locomotor activity; format: in vivo; conditions: rat
Experimental: Spontaneous locomotor activity can be measured to determine sedative effects of compounds. Locomotor activity is measured in eight computerized Digiscan-16 Animal Activity Monitors (Omnitech Electronics, Columbus, Ohio) equipped with 48 infrared photocell emitters and detectors. Each box is constructed of Plexiglas sides and floor. Horizontal activity is detected by a set of horizontal sensors on the front to back walls and a second group of sensors on the side to side walls located 5 cm above the cage floor. Vertical activity is detected by a third set of sensors on the side to side walls located 13.5 cm above the cage floor. The rats are tested in the presence of white noise (62 dB) and red St light (60 watt).
Test compound is administered IV in a 50% PEG vehicle 5 minutes prior to the test session. A range of compound doses is typically used and 6 to 8 rats are tested at each dose. The animal's movement time, vertical activity, and total distance traveled are tracked over a 15 minute test session. A sedative, or hypnotic, effect in the spontaneous locomotor activity model is defined by a decrease in any two of these three measures relative to animals given vehicle alone.

[7] = target: α5β3γ2 GABAA subtype receptor (Homo sapiens, UniProt P18507+P31644); experiment: oocyte electrophysiology, two electrode voltage-clamp, potentiation of GABA current; format: cell-based; conditions: Xenopus oocytes, human subunits, GABA EC10; for Emax: read-out: oocyte electrophysiology maximum potentiation (%) α5β3γ2
Chain of α5β3γ2 GABAA subtype receptor (P31644 32-462): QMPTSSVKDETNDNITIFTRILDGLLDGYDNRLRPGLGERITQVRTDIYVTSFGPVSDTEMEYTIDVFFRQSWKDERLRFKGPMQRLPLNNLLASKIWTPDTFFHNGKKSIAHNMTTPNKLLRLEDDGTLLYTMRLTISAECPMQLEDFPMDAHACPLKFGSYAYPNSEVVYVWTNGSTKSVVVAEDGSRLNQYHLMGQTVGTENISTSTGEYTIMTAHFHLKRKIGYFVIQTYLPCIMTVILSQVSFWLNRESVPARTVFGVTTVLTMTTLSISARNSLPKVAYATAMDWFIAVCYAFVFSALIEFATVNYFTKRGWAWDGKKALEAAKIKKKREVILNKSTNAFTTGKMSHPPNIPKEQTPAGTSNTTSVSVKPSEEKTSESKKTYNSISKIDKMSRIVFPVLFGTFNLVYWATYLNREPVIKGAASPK
Chain of α5β3γ2 GABAA subtype receptor (P28472 26-473 partner): as the sequence (P28472 26-473 partner) above
Chain of α5β3γ2 GABAA subtype receptor (P18507 40-475): as the sequence (P18507 40-475) above
Experimental: as §1, §2, §3, §4

rats [8] = experiment: elevated plus maze; format: in vivo; conditions: rat, IV, statistically significant response (anxiolytic effect)
Experimental: The elevated plus maze model capitalizes on rats' innate fear of open, elevated places. The test apparatus is an elevated plus maze consisting of two open arms and two closed arms. A rat will naturally chose to spend more time on the closed arms of the maze than on the open arms but that if an efficacious anxiolytic compound is administered to the rat prior to the test the amount it of time the rat spends in the open arms is increased.
Test compound is administered IV in a 50% PEG (polyethylene glycol) vehicle 5 minutes prior to the test session. A range of compound doses is typically used and 8-10 rats are tested at each dose. The rat is placed in the center of the maze facing one of the open arms. The animal's locomotion is tracked over a five minute test session using photocells interfaced to a computer. The computer measures the number of entries into each arm and the time spent on each arm. An anxiolytic effect in the elevated plus maze model is defined by an increase in the percentage of time spent on the open arms in compound versus vehicle treated animals.

[9] = IV, hypnotic effect (Table VII)

Structure (SMILES): Cc1ccc(-c2nc3ccc(C)cn3c2CC(=O)N(C)C)cc1 [Zolpidem, reference compound]
- step-down passive avoidance, minimal efficacious dose (rats [1]; IV, cognitive impairment side effect (Table VII)): 0.5 mg/kg
- Ki [2]: 48 nM
- oocyte electrophysiology maximum potentiation (%) α1β2γ2 [3]: 263%
- oocyte electrophysiology maximum potentiation (%) α3β3γ2 [4]: 882%
- oocyte electrophysiology maximum potentiation (%) α2β3γ2 [5]: 350%
- spontaneous locomotor activity, minimal efficacious dose (rats [6]; [9]): 0.25 mg/kg

Structure (SMILES): COc1ccc(NC(=O)c2c[nH]c3c2C(=O)CC(C)(C)C3)c(F)c1 [compound 6]
- step-down passive avoidance, minimal efficacious dose (rats [1]; in vivo, iv, 24 h): 4 mg/kg
- Ki [2]: 11 nM
- oocyte electrophysiology maximum potentiation (%) α5β3γ2 [7]: 42%
- oocyte electrophysiology maximum potentiation (%) α1β2γ2 [3]: 25%
- oocyte electrophysiology maximum potentiation (%) α3β3γ2 [4]: 95%
- oocyte electrophysiology maximum potentiation (%) α2β3γ2 [5]: 72%
- spontaneous locomotor activity, minimal efficacious dose (rats [6]; [9]): 0.25 mg/kg

Structure (SMILES): O=c1[nH]c2c(n1-c1nc3ccc(F)c(F)c3o1)CCCCC2 [compound 7]
- Ki [2]: 3 nM
- Emax [7]: -23%
- oocyte electrophysiology maximum potentiation (%) α1β2γ2 [3]: 18%
- oocyte electrophysiology maximum potentiation (%) α3β3γ2 [4]: 83%
- oocyte electrophysiology maximum potentiation (%) α2β3γ2 [5]: 51%
- spontaneous locomotor activity, minimal efficacious dose (rats [6]; [9]): 0.125 mg/kg

Structure (SMILES): Cc1nnc2n1-c1ccc(Cl)cc1C(c1ccccc1)=NC2 [Alprazolam, reference compound]
- Ki [2]: 3.3 nM
- elevated plus maze, minimal efficacious dose (rats [8]): 0.0625 mg/kg
- oocyte electrophysiology maximum potentiation (%) α5β3γ2 [7]: 206%
- oocyte electrophysiology maximum potentiation (%) α1β2γ2 [3]: 327%
- oocyte electrophysiology maximum potentiation (%) α3β3γ2 [4]: 774%
- oocyte electrophysiology maximum potentiation (%) α2β3γ2 [5]: 333%
- spontaneous locomotor activity, minimal efficacious dose (rats [6]; IV, sedation as side effect (Tables V and IX)): 0.125 mg/kg

Structure (SMILES): CC1CC(=O)c2c(C(=O)Nc3ccc(F)cc3)c[nH]c2C1 (stereo not shown) [compound 8]
- Ki [2]: 24 nM
- oocyte electrophysiology maximum potentiation (%) α5β3γ2 [7]: 16%
- oocyte electrophysiology maximum potentiation (%) α1β2γ2 [3]: 17%
- oocyte electrophysiology maximum potentiation (%) α3β3γ2 [4]: 61%
- oocyte electrophysiology maximum potentiation (%) α2β3γ2 [5]: 42%
- spontaneous locomotor activity, minimal efficacious dose (rats [6]; [9]): 0.5 mg/kg

Structure (SMILES): O=C(Nc1ccc(OCCO)cc1)c1c[nH]c2c1C(=O)CCC2 [compound 12]
- cognitive model (step-down passive avoidance), minimal efficacious dose (rats [1]; IV): 0.06 mg/kg
- Ki [2]: 5.4 nM
- Emax [7]: -12%
- oocyte electrophysiology maximum potentiation (%) α1β2γ2 [3]: 15%
- oocyte electrophysiology maximum potentiation (%) α3β3γ2 [4]: 82%
- oocyte electrophysiology maximum potentiation (%) α2β3γ2 [5]: 63%

Structure (SMILES): O=C(Nc1cccc(F)c1)c1c[nH]c2c(c1=O)CCC2 [compound 5]
- Ki [2]: 8.3 nM
- elevated plus maze, minimal efficacious dose (rats [8]): 0.5 mg/kg
- Emax [7]: 0%
- Emax [3]: 0%
- oocyte electrophysiology maximum potentiation (%) α3β3γ2 [4]: 44%
- oocyte electrophysiology maximum potentiation (%) α2β3γ2 [5]: 44%

Structure (SMILES): O=c1c(-c2ccccc2F)nc2c[nH]c3ccccc3n1-2 [compound 2]
- Ki [2]: 10 nM
- elevated plus maze, minimal efficacious dose (rats [8]): 0.5 mg/kg
- Emax [7]: -11%
- oocyte electrophysiology maximum potentiation (%) α1β2γ2 [3]: 18%
- oocyte electrophysiology maximum potentiation (%) α3β3γ2 [4]: 39%
- oocyte electrophysiology maximum potentiation (%) α2β3γ2 [5]: 40%
- spontaneous locomotor activity, minimal efficacious dose (rats [6]; in vivo, iv, 15 min): 4 mg/kg

Structure (SMILES): O=c1c2c[nH]c3ccccc3n-2c(=O)n1-c1ccc(F)cc1 [compound 10]
- cognitive model (step-down passive avoidance), minimal efficacious dose (rats [1]; IV): 0.25 mg/kg
- Ki [2]: 10 nM
- Emax [7]: -27%
- Emax [3]: 0%
- oocyte electrophysiology maximum potentiation (%) α3β3γ2 [4]: 23%
- oocyte electrophysiology maximum potentiation (%) α2β3γ2 [5]: 22%

Structure (SMILES): c1cc2c(cc1-c1ncc3[nH]c4c(c3n1)CCCC4)OCO2 [compound 9]
- step-down passive avoidance, minimal efficacious dose (rats [1]; in vivo, iv, 24 h): 0.5 mg/kg
- Ki [2]: 7.8 nM
- Emax [7]: < 10%
- oocyte electrophysiology maximum potentiation (%) α1β2γ2 [3]: 33%
- oocyte electrophysiology maximum potentiation (%) α3β3γ2 [4]: 23%
- oocyte electrophysiology maximum potentiation (%) α2β3γ2 [5]: 53%
- spontaneous locomotor activity, minimal efficacious dose (rats [6]; [9]): 0.5 mg/kg
